From patent publication US9102919B2, “WNT pathway stimulation in reprogramming somatic cells with nuclear reprogramming factors” (Whitehead Institute for Biomedical Research, priority 2007, dated 2015)

Columns and labels:
histone deacetylase = settings: cited from earlier work
PKA = settings: at >100 μM; cited from earlier work
PKC = settings: at >100 μM; cited from earlier work
CK-II = settings: at >100 μM; cited from earlier work
Cdk-1/cyclin B = Cdk-1/cyclin B (Homo sapiens, UniProt P06493); settings: at >100 μM; cited from earlier work
Sequence of Cdk-1/cyclin B (P06493 whole entry, species assumed): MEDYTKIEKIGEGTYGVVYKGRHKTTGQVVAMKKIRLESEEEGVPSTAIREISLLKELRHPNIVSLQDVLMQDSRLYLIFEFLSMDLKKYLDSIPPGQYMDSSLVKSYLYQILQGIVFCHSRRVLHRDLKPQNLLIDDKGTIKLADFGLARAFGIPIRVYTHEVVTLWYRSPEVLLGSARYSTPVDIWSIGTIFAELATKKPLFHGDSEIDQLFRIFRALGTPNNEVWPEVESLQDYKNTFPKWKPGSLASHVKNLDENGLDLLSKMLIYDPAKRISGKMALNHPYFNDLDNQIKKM
Sequence of Cdk-1/cyclin B (P14635 whole entry partner, species assumed): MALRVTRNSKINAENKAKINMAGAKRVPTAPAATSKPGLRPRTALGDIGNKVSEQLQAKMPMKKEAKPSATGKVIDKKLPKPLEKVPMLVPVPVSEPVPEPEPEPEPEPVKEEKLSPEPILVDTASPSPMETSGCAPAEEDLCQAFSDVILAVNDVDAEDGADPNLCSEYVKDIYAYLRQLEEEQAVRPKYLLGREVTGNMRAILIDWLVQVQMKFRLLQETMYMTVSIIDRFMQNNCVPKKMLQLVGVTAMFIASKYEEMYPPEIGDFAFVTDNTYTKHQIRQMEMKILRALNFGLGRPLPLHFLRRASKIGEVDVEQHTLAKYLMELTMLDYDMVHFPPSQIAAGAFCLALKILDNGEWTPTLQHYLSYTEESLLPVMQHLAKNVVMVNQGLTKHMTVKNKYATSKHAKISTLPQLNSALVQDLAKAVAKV

26 other kinases = settings: cited from earlier work
GSK3 = settings: cited from earlier work
[1] = tested on: MEFs overexpressing Oct4/Sox2/Klf4/c-Myc; assay: G418-resistant colony formation in four-factor MEFs; assay type: cell-based, mouse
Procedure: (§1) Cell culture, viral infections, induction of gene expression. Cells were cultured in 15% FBS, DMEM-KO, Penn/Step, Glutamine, Nonessential amino acids, β-ME, and LIF. Mouse embryo fibroblasts (MEFs) with an Oct4-IRES-eGFP construct (Meissner, A., et al., Nature Biotechnology, Direct reprogramming of genetically unmodified fibroblasts into pluripotent stem cells. Published online: 27 Aug. 2007|doi:10.1038/nbt1335) inserted into the endogenous Oct4 locus were infected with lentiviral vectors driving the doxycycline-inducible expression of Oct4, Sox2, Klf4 and c-Myc or only Oct4, Sox2, and Klf4. The vectors were based on the FUGW lentiviral vector backbone (Lois C, et al., Science 2002; 295: 868-872.), modified to include a tet-inducible promoter. Two days following infection cells were split and induced with doxycycline in the presence or absence of Wnt3a conditioned media (used in a 1:1 dilution with normal ES media with 2×LIF). These cells were monitored for GFP expression by flow cytometry at day 13 and again at day 20. In parallel, MEFs with doxycycline-inducible Oct4 expressed from the collagen locus and Oct4-IRES-(neo resistance) inserted into the endogenous Oct4 locus were infected with lentiviruses driving the overexpression of either Sox2, Klf4 and c-Myc or Sox2 and Klf4. Again, two days following infection cells were split and induced with doxycycline in the presence or absence of Wnt3a conditioned media. […] Following at least one week of G418 selection, resistant colonies were examined and counted.
Conditioned medium. Wnt 3a conditioned media (CM) was collected from mouse L cells that had been transfected with Wnt3a cDNA (Shibamoto et al. 1998). These cells are available through ATCC(CRL-2647) along with the untransfected parent cell line (CRL-2648) to use for control conditioned medium. […]
We hypothesized that stimulation of the stimulation of the Wnt pathway using soluble factors could modulate the efficiency of inducing pluripotency in somatic cells. […] GFP expression was analyzed by FACS on day 13 and 20. […] Surviving colonies were counted on day 20. […]

[2] = tested on: MEFs over-expressing Oct4/Sox2/Klf4; assay: G418-resistant colony formation in three-factor (Myc[-]) MEFs; assay type: cell-based, mouse; settings: 4 μM; three factors in Wnt3a-CM; G418 day 15; scored day 28
Procedure: as §1, with “20.” for “20. In parallel, MEFs with doxycycline-inducible Oct4 expressed from the collagen locus and Oct4-IRES-(neo resistance) inserted into the endogenous Oct4 locus were infected with lentiviruses driving the overexpression of either Sox2, Klf4 and c-Myc or Sox2 and Klf4. Again, two days following infection cells were split and induced with doxycycline in the presence or absence of Wnt3a conditioned media.”, “counted. […]” for “counted.”
We hypothesized that stimulation of the stimulation of the Wnt pathway using soluble factors could modulate the efficiency of inducing pluripotency in somatic cells. […] GFP expression was analyzed by FACS on day 13 and 20. […]

CC(/C=C/C(=O)NO)=C\[C@@H](C)C(=O)c1ccc(N(C)C)cc1 [Trichostatin A, [R-(E,E)]-7-[4-(Dimethylamino)phenyl]-N-hydroxy-4,6-dimethyl-7-oxo-2,4-heptadienamide]
inhibition of histone deacetylase (histone deacetylase): inhibits histone deacetylase at nanomolar concentrations

Cn1sc(=O)n(Cc2ccccc2)c1=O [TDZD-8, 4-Benzyl-2-methyl-1,2,4-thiadiazolidine-3,5-dione]
inhibition (PKA): does not inhibit | inhibition (PKC): does not inhibit | inhibition (CK-II): does not inhibit | inhibition (Cdk-1/cyclin B): does not inhibit

COc1ccc(CNC(=O)Nc2ncc([N+](=O)[O-])s2)cc1 [AR-A014418, N-(4-Methoxybenzyl)-N′-(5-nitro-1,3-thiazol-2-yl)urea]
inhibition of other kinases (26 other kinases): does not significantly inhibit | Ki (GSK3): […]

O=C1[C@H](Cc2ccc(O)cc2)N2C(=O)CCN(C(=O)NCc3ccccc3)[C@H]2CN1Cc1cccc2ccccc12 [ICG-001]
effect on number of G418 colonies in c-Myc transduced cells ([1]; 4 μM, four factors in Wnt3a-CM, selection day 10, assessed day 20): only a subtle effect | iPS colonies ([1]; 25 μM, four factors (data not shown)): multiple Oct4/Sox2/Klf4/c-Myc iPS colonies were observed | iPS colony numbers ([1]; higher doses than 4 μM, four factors (data not shown)): further reduced | effect on Wnt3a-CM promoted Myc[-] iPS formation [2]: strongly inhibited
